According to PubChem BioAssay (NCI):
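Protocol summary: plate cells (96-well), add compound at 5 concentrations, incubate 48 h, interpolate endpoints linearly. TGI denotes the concentration required for complete inhibition of growth.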

Tests used:
Test in all cases: NCI tumour cell line growth inhibition, 48 h
786-0 renal = system: 786-0 renal
A498 renal = system: A498 renal
A549 NSCLC = system: A549 NSCLC
ACHN renal = system: ACHN renal
BT-549 breast = system: BT-549 breast
CAKI-1 renal = system: CAKI-1 renal
CCRF-CEM leukemia = system: CCRF-CEM leukemia
COLO 205 colon = system: COLO 205 colon
DU-145 prostate = system: DU-145 prostate
EKVX NSCLC = system: EKVX NSCLC
HCC-2998 colon = system: HCC-2998 colon
HCT-116 colon = system: HCT-116 colon
HCT-15 colon = system: HCT-15 colon
HL-60(TB) leukemia = system: HL-60(TB) leukemia
HOP-62 NSCLC = system: HOP-62 NSCLC
HOP-92 NSCLC = system: HOP-92 NSCLC
HS 578T breast = system: HS 578T breast
HT29 colon = system: HT29 colon
IGROV1 ovarian = system: IGROV1 ovarian
K-562 leukemia = system: K-562 leukemia
KM12 colon = system: KM12 colon
LOX IMVI melanoma = system: LOX IMVI melanoma
M14 melanoma = system: M14 melanoma
MCF7 breast = system: MCF7 breast
MDA-MB-231 breast = system: MDA-MB-231 breast
MDA-MB-435 = system: MDA-MB-435
MDA-N = system: MDA-N
MOLT-4 leukemia = system: MOLT-4 leukemia
NCI-H226 lung = system: NCI-H226 lung
NCI-H23 lung = system: NCI-H23 lung
NCI-H460 lung = system: NCI-H460 lung
NCI-H522 lung = system: NCI-H522 lung
NCI/ADR-RES ovarian = system: NCI/ADR-RES ovarian
OVCAR-3 ovarian = system: OVCAR-3 ovarian
OVCAR-4 ovarian = system: OVCAR-4 ovarian
OVCAR-5 ovarian = system: OVCAR-5 ovarian
OVCAR-8 ovarian = system: OVCAR-8 ovarian
PC-3 prostate = system: PC-3 prostate
RPMI-8226 leukemia = system: RPMI-8226 leukemia
RXF 393 renal = system: RXF 393 renal
SF-268 CNS = system: SF-268 CNS
SF-295 CNS = system: SF-295 CNS
SK-MEL-2 melanoma = system: SK-MEL-2 melanoma
SK-MEL-28 melanoma = system: SK-MEL-28 melanoma
SK-MEL-5 melanoma = system: SK-MEL-5 melanoma
SK-OV-3 ovarian = system: SK-OV-3 ovarian
SN12C renal = system: SN12C renal
SNB-19 CNS = system: SNB-19 CNS
SNB-75 CNS = system: SNB-75 CNS
SR leukemia = system: SR leukemia
SW-620 colon = system: SW-620 colon
T-47D breast = system: T-47D breast
TK-10 renal = system: TK-10 renal
U251 CNS = system: U251 CNS
UACC-257 melanoma = system: UACC-257 melanoma
UACC-62 melanoma = system: UACC-62 melanoma
UO-31 renal = system: UO-31 renal
MALME-3M melanoma = system: MALME-3M melanoma
SF-539 CNS = system: SF-539 CNS

CC1(C)OC(=S)N(c2ccccc2)C12C=Cc1ccccc1O2 (stereo not given) was tested, and the TGI (786-0 renal) was greater than 100 µM, the TGI (A498 renal) was greater than 100 µM and the TGI (A549 NSCLC) was greater than 100 µM. The TGI (ACHN renal) was greater than 100 µM, the TGI (BT-549 breast) was greater than 100 µM and the TGI (CAKI-1 renal) was greater than 100 µM. The TGI (CCRF-CEM leukemia) was greater than 100 µM, the TGI (COLO 205 colon) was greater than 100 µM and the TGI (DU-145 prostate) was greater than 100 µM. It also gave a TGI (EKVX NSCLC) greater than 100 µM, a TGI (HCC-2998 colon) greater than 100 µM and a TGI (HCT-116 colon) greater than 100 µM. The TGI (HCT-15 colon) was greater than 100 µM, the TGI (HL-60(TB) leukemia) was 52.4 µM and the TGI (HOP-62 NSCLC) was greater than 100 µM. The TGI (HOP-92 NSCLC) was greater than 100 µM, the TGI (HS 578T breast) was greater than 100 µM and the TGI (HT29 colon) was greater than 100 µM. It also gave a TGI (IGROV1 ovarian) greater than 100 µM, a TGI (K-562 leukemia) greater than 100 µM and a TGI (KM12 colon) greater than 100 µM. The TGI (LOX IMVI melanoma) was greater than 100 µM, the TGI (M14 melanoma) was greater than 100 µM and the TGI (MCF7 breast) was greater than 100 µM. The TGI (MDA-MB-231 breast) was greater than 100 µM, the TGI (MDA-MB-435) was greater than 100 µM and the TGI (MDA-N) was greater than 100 µM. The TGI (MOLT-4 leukemia) was 76.5 µM, the TGI (NCI-H226 lung) was greater than 100 µM and the TGI (NCI-H23 lung) was greater than 100 µM. For the same molecule, the TGI (NCI-H460 lung) was greater than 100 µM, the TGI (NCI-H522 lung) was greater than 100 µM and the TGI (NCI/ADR-RES ovarian) was greater than 100 µM. For the same molecule, the TGI (OVCAR-3 ovarian) was greater than 100 µM, the TGI (OVCAR-4 ovarian) was greater than 100 µM and the TGI (OVCAR-5 ovarian) was greater than 100 µM. For the same molecule, the TGI (OVCAR-8 ovarian) was greater than 100 µM, the TGI (PC-3 prostate) was greater than 100 µM and the TGI (RPMI-8226 leukemia) was greater than 100 µM. It also gave a TGI (RXF 393 renal) greater than 100 µM, a TGI (SF-268 CNS) greater than 100 µM and a TGI (SF-295 CNS) greater than 100 µM. The TGI (SK-MEL-2 melanoma) was greater than 100 µM, the TGI (SK-MEL-28 melanoma) was greater than 100 µM and the TGI (SK-MEL-5 melanoma) was greater than 100 µM. It also gave a TGI (SK-OV-3 ovarian) of 73 µM, a TGI (SN12C renal) greater than 100 µM and a TGI (SNB-19 CNS) greater than 100 µM. The TGI (SNB-75 CNS) was greater than 100 µM, the TGI (SR leukemia) was 37.2 µM and the TGI (SW-620 colon) was greater than 100 µM. The TGI (T-47D breast) was 82.4 µM, the TGI (TK-10 renal) was greater than 100 µM and the TGI (U251 CNS) was greater than 100 µM. For the same molecule, the TGI (UACC-257 melanoma) was greater than 100 µM, the TGI (UACC-62 melanoma) was greater than 100 µM and the TGI (UO-31 renal) was greater than 100 µM.
CCOC(=O)N1N=C(/C(C)=N/OC)C(C)S1=O (stereo not given) showed a TGI (786-0 renal) greater than 100 µM, a TGI (A498 renal) greater than 100 µM and a TGI (A549 NSCLC) greater than 100 µM. The TGI (ACHN renal) was greater than 100 µM, the TGI (BT-549 breast) was greater than 100 µM and the TGI (CAKI-1 renal) was greater than 100 µM. The TGI (CCRF-CEM leukemia) was greater than 100 µM, the TGI (COLO 205 colon) was greater than 100 µM and the TGI (DU-145 prostate) was greater than 100 µM. For the same molecule, the TGI (EKVX NSCLC) was greater than 100 µM, the TGI (HCC-2998 colon) was greater than 100 µM and the TGI (HCT-116 colon) was greater than 100 µM. For the same molecule, the TGI (HCT-15 colon) was greater than 100 µM, the TGI (HL-60(TB) leukemia) was greater than 100 µM and the TGI (HOP-62 NSCLC) was greater than 100 µM. It also gave a TGI (HOP-92 NSCLC) greater than 100 µM, a TGI (HS 578T breast) greater than 100 µM and a TGI (HT29 colon) greater than 100 µM. The TGI (IGROV1 ovarian) was greater than 100 µM, the TGI (K-562 leukemia) was greater than 100 µM and the TGI (KM12 colon) was greater than 100 µM. For the same molecule, the TGI (M14 melanoma) was greater than 100 µM, the TGI (MALME-3M melanoma) was greater than 100 µM and the TGI (MCF7 breast) was greater than 100 µM. The TGI (MDA-MB-231 breast) was greater than 100 µM, the TGI (MDA-MB-435) was greater than 100 µM and the TGI (MDA-N) was greater than 100 µM. The TGI (MOLT-4 leukemia) was greater than 100 µM, the TGI (NCI-H226 lung) was greater than 100 µM and the TGI (NCI-H23 lung) was greater than 100 µM. The TGI (NCI-H460 lung) was greater than 100 µM, the TGI (NCI-H522 lung) was greater than 100 µM and the TGI (NCI/ADR-RES ovarian) was greater than 100 µM. It also gave a TGI (OVCAR-3 ovarian) greater than 100 µM, a TGI (OVCAR-4 ovarian) greater than 100 µM and a TGI (OVCAR-5 ovarian) greater than 100 µM. For the same molecule, the TGI (OVCAR-8 ovarian) was greater than 100 µM, the TGI (PC-3 prostate) was greater than 100 µM and the TGI (RPMI-8226 leukemia) was greater than 100 µM. It also gave a TGI (RXF 393 renal) greater than 100 µM, a TGI (SF-268 CNS) greater than 100 µM and a TGI (SF-295 CNS) greater than 100 µM. For the same molecule, the TGI (SF-539 CNS) was greater than 100 µM, the TGI (SK-MEL-2 melanoma) was greater than 100 µM and the TGI (SK-MEL-28 melanoma) was greater than 100 µM. For the same molecule, the TGI (SK-MEL-5 melanoma) was greater than 100 µM, the TGI (SK-OV-3 ovarian) was greater than 100 µM and the TGI (SN12C renal) was greater than 100 µM. For the same molecule, the TGI (SNB-19 CNS) was greater than 100 µM, the TGI (SNB-75 CNS) was greater than 100 µM and the TGI (SR leukemia) was greater than 100 µM. The TGI (SW-620 colon) was greater than 100 µM, the TGI (T-47D breast) was greater than 100 µM and the TGI (TK-10 renal) was greater than 100 µM. The TGI (U251 CNS) was greater than 100 µM, the TGI (UACC-257 melanoma) was greater than 100 µM and the TGI (UACC-62 melanoma) was greater than 100 µM. The TGI (UO-31 renal) was greater than 100 µM.
